# Source: patent publication US12540150B1, “Fluorogenic probe using a Mislow-Evans rearrangement for real-time imaging of hydrogen peroxide” (University of Pittsburgh—Of the Commonwealth System of …, priority 2020, dated 2026)
# Where “and” joins values, the source holds several entries; their conditions need not be identical. Equal entries are not always repeated.
# How the values were obtained:
# [1] = Selectivity of 1: reaction with NO3^−; conditions: for Fluorescence: 15 min minus 0 min
# Description: The probe 1 was then exposed to NO3^− at various concentrations. NaNO3 (30.9 mg) was dissolved in ultrapure water (2.00 mL). This solution was diluted to 10 μM, 100 μM, 1.00 mM, and 10.0 mM. H2O2 was diluted to 10 μM, 100 μM, 1.00 mM, and 10.0 mM. A solution of 100 μM 1 in ethanol (20 μL) was added to 5:95 methanol/50 mM pH 7 potassium phosphate buffer (160 μL). The NaNO3 or H2O2 solutions (20 μL) were added to the solution containing 1 and the fluorescence intensity was measured immediately and again after incubation at 25° C. for 15 min. The fluorescence change over the first 15 min was reported for NO3^− in FIG. 21 and Table 12. The fluorescence values in Table 12 are the fluorescence at 15 min minus the fluorescence at 0 min.
# [2] = Fluorescence intensity of selenide 1 and phenol 5; type: physicochemical
# Description: All fluorescence measurements (excitation 490 nm, emission 510-570 nm) were carried out using a Promega Biosystems Modulus II Microplate Reader or a HoribaMax Fluorometer unless otherwise stated. Data analysis was performed using GraphPad Prism 8.
# The fluorescence intensity of selenide 1 and phenol 5 were investigated. Solutions containing ultrapure water (681 μL), […] phosphate pH 7 buffer (31 μL), DMSO (28.1 μL), and 80 μM 1 or phenol 5 in DMSO (9.4 μL) were made. Aliquots of these solutions (200 μL) were transferred to the wells of a black 96-well plate and the fluorescence was measured. As evident from FIG. 10 and Table 1, the difference in fluorescence intensity of probe 1 and phenol 5, is 27-fold. Generally, O-alkylation of Pittsburgh Green suppresses the fluorescence by 200-400 fold. The somewhat modest fluorescence increase in the current system is attributed to the trace contamination of the fluorescent compound 5 during the purification of the nonfluorescent probe 1.
# [3] = Fluorescence response of 1 with increasing concentrations of H2O2; conditions: 0-159 μM H2O2 solutions, phosphate pH 7 buffer, 25° C., 20 min
# Description: To verify that 1 could quantitatively measure H2O2 concentrations, 1 was incubated with increasing concentrations of H2O2. A solution of 0-159 μM H2O2 in 5:95 MeCN/50 mM phosphate pH 7 buffer (180 μL) was added to the wells of a black 96-well plate. A solution of 100 μM 1 in MeCN (20 μL) was then added to the wells. The solutions were allowed to incubate at 25° C. for 20 min before the fluorescence was measured.
# [4] = Response of probe 1 to H2O2 at various pHs; conditions: for Fluorescence: 23° C., 20 min
# Description: The probe's response to H2O2 in the pH 4-7.3 range was studied to determine whether this technology would work in acidic and neutral intracellular environments, such as lysosomes (pH 5), Golgi apparatus (pH 6.4-6.8), mitochondria (pH 6.9-8.0), and cytoplasm (pH 7.1-7.6). A solution of 50 mM phosphate pH 7.3 buffer was treated with 1.0 N HCl to adjust the pH to 7.0, 6.5, 5.9, 5.4, 4.5, or 4.1. The concentration of the resulting buffers was adjusted with water to 25 mM phosphate buffer. Solutions of 25 mM phosphate pH 7.3, 7.0, 6.5, 5.9, 5.4, 4.5, or 4.1 buffer ([…]) and 100 μM probe 1 in MeOH were treated with 100 μM, 10 μM or 0 μM H2O2 in water. The solutions were allowed to incubate at 23° C. for 20 min prior to measuring the fluorescence.
# zebrafish = experiment: Zebrafish tail wound-healing model imaging of H2O2; type: in vivo; conditions: three-day post-fertilization zebrafish embryos, 1 mM 1 for 2 h
# Text: H2O2 has been recognized as a critical signaling molecule for the recruitment of immune cells for wound regeneration. To date, only genetically encoded protein-based fluorescent probes have been able to illuminate the spatiotemporal dynamics of H2O2 for wound healing models in zebrafish. It was hypothesized that our method might be rapid enough to match the protein-based imaging in vivo. As a platform to test this hypothesis, 1 was applied to image a zebrafish tail wound-healing model.
# Three-day post-fertilization zebrafish embryos were removed from their chorion and allowed to swim in 1 mM 1 for 2 h (0.1% v/v DMSO), leading to effective dye loading. Following this, the fish were anesthetized and mounted in agar. The tail fins were clipped with a razor blade.
# Fluorescence images were obtained every 60 s for 60 min using an inverted Nikon TiE fluorescent microscope (Nikon Inc., Melville, NY) equipped with a 20× 0.75 NA lens and NIS Elements Software. The sample was excited using the 470 nm line of a Lumencor diode-pumped light engine (SpectraX, Lumencor Inc., Beaverton OR), and the fluorescence signals were detected using an ET-GFP filter set (Chroma Technology Corp) and ORCA-Flash 4.0 sCMOS camera (HAMAMATSU Corporation, Bridgewater, NJ).
# endothelial cells = experiment: Localization of 1 in endothelial cells with MitoTracker Red, ionomycin stimulation; type: cell-based; conditions: ionomycin 10 μM
# Description: To study the localization of 1, endothelial cells were simultaneously incubated with 1 μM MitoTracker® Red FM (ThermoFisher Scientific) for 20 min at 37° C. (FIG. 24D). The dish was inserted in a closed, thermo-controlled (37° C.) stage top incubator (Tokai Hit Co., Shizuoka-ken, Ja-pan) atop the motorized stage of an inverted Nikon TiE fluorescent microscope (Nikon Inc., Melville, NY) equipped with a 60× oil immersion optic (Nikon, CFI PlanFluor, NA 1.49) and NIS Elements Software. The sample was excited using the 555 nm line and detected using a TRITC filter set.
smiles,measurement,setting,value
"Oc1ccc2c(c1)Oc1cc(O/C=C/C[Se]c3ccccc3)ccc1[C@@]21OCc2ccccc21 [Compound 1, (S,E)-6′-((3-(Phenylselanyl)prop-1-en-1-yl)oxy)-3H-spiro[isobenzofuran-1,9′-xanthen]-3′-ol]",reaction with NO3^−,[1],did not react
same,Fluorescence,"[1]; 0 μM NO3^− or H2O2, pH 7, 25° C.","24,359 and 26,870 and 26,226"
same,Fluorescence,[1]; 0.1 μM H2O2,"58,172 and 52,104 and 52,249"
same,Fluorescence,[1]; 0.1 μM NO3^−,"34,507 and 35,439 and 40,487"
same,Fluorescence,[1]; 1 μM H2O2,"266,770 and 242,313 and 222,834"
same,Fluorescence,[1]; 1 μM NO3^−,"43,966 and 35,385 and 47,433"
same,signal increase in the conversion if trace phenol 5 can be removed from selenide 1,[2]; extrapolated,125-250 fold
same,difference in fluorescence intensity of probe 1 and phenol 5,[2]; phosphate pH 7 buffer,27 fold
same,Fluorescence Intensity,"[2]; water/phosphate pH 7 buffer/DMSO, 200 μL, excitation 490 nm, emission 510-570 nm, replicates n = 3","7,053 and 11,524 and 8,556"
same,fluorescence dependence on H2O2 concentration,[3],increased linearly with H2O2 concentration
same,pH dependence of fluorescence signals with H2O2,[4]; pH 4-7.3 range,higher when the pH was above 5.4
same,Fluorescence,"[4]; pH 4.10, 0 μM H2O2","28,470 and 25,037 and 28,661"
same,Fluorescence,"[4]; pH 4.10, 1 μM H2O2","35,884 and 30,492 and 30,471"
same,Fluorescence,"[4]; pH 4.10, 10 μM H2O2","51,632 and 54,097 and 52,472"
same,Fluorescence,"[4]; pH 4.50, 0 μM H2O2","29,770 and 29,064 and 29,069"
same,Fluorescence,"[4]; pH 4.50, 1 μM H2O2","40,599 and 31,790 and 33,283"
same,Fluorescence,"[4]; pH 4.50, 10 μM H2O2","55,577 and 54,961 and 56,315"
same,Fluorescence,"[4]; pH 5.40, 0 μM H2O2","56,192 and 56,334 and 52,671"
same,Fluorescence,"[4]; pH 5.40, 1 μM H2O2","61,365 and 63,294 and 60,943"
same,Fluorescence,"[4]; pH 5.40, 10 μM H2O2","106,516 and 107,311 and 103,354"
same,Fluorescence,"[4]; pH 5.90, 0 μM H2O2","87,499 and 89,708 and 90,424"
same,Fluorescence,"[4]; pH 5.90, 1 μM H2O2","113,703 and 111,368 and 107,545"
same,Fluorescence,"[4]; pH 5.90, 10 μM H2O2","167,836 and 187,633 and 154,515"
same,Fluorescence,"[4]; pH 6.50, 0 μM H2O2","155,151 and 183,747 and 149,421"
same,Fluorescence,"[4]; pH 6.50, 1 μM H2O2","203,661 and 188,050 and 184,986"
same,Fluorescence,"[4]; pH 6.50, 10 μM H2O2","332,896 and 341,948 and 335,544"
same,Fluorescence,"[4]; pH 7.00, 0 μM H2O2","199,101 and 207,136 and 187,676"
same,Fluorescence,"[4]; pH 7.00, 1 μM H2O2","247,464 and 221,499 and 229,530"
same,Fluorescence,"[4]; pH 7.00, 10 μM H2O2","389,464 and 369,467 and 390,006"
same,Fluorescence,"[4]; pH 7.30, 0 μM H2O2","189,898 and 183,424 and 169,054"
same,Fluorescence,"[4]; pH 7.30, 1 μM H2O2","228,368 and 208,913 and 186,665"
same,Fluorescence,"[4]; pH 7.30, 10 μM H2O2","373,555 and 388,584 and 401,912"
same,time of maximum fluorescence after tail snipping,zebrafish,10 to 20 min
same,time after the addition of ionomycin of first image showing increased fluorescence,endothelial cells,≤ 8 s
